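Briefly, cells in 96-well plates were exposed to five compound concentrations for 48 h, and endpoints were estimated by linear interpolation. Here, GI50 denotes the concentration required for 50% inhibition of growth.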 Activity calls are given as the source filed them. Rule as the data show it: active = GI50 up to about 1.1 µM and inactive = higher.
Experiments:
Experiment in all cases: growth of human tumour cells (NCI), 48 h
OVCAR-5 = test system: OVCAR-5
M14 = test system: M14
SW-620 = test system: SW-620
A549 = test system: A549
U-251 = test system: U-251
EKVX = test system: EKVX
HCT-15 = test system: HCT-15
KM-20L2 = test system: KM-20L2
UACC-257 = test system: UACC-257
TK-10 = test system: TK-10
M19-MEL = test system: M19-MEL
LOX IMVI = test system: LOX IMVI
DLD-1 = test system: DLD-1
UO-31 = test system: UO-31
SF-539 = test system: SF-539
NCI-H23 = test system: NCI-H23
NCI-H460 = test system: NCI-H460
SNB-19 = test system: SNB-19
SF-295 = test system: SF-295
SN12C = test system: SN12C
SK-OV-3 = test system: SK-OV-3
ACHN = test system: ACHN
SF-268 = test system: SF-268
OVCAR-8 = test system: OVCAR-8
KM12 = test system: KM12
UACC-62 = test system: UACC-62
NCI-H226 = test system: NCI-H226
HOP-92 = test system: HOP-92
HCC 2998 = test system: HCC 2998
A498 = test system: A498
RXF 393 = test system: RXF 393
CAKI-1 = test system: CAKI-1
NCI/ADR-RES = test system: NCI/ADR-RES
NCI-H522 = test system: NCI-H522
HT-29 = test system: HT-29
SK-MEL-28 = test system: SK-MEL-28
CCRF-CEM = test system: CCRF-CEM
RPMI-8226 = test system: RPMI-8226
PC-3 = test system: PC-3
Hs-578T = test system: Hs-578T
786-0 = test system: 786-0
IGROV-1 = test system: IGROV-1
SK-MEL-2 = test system: SK-MEL-2
HCT-116 = test system: HCT-116
HL-60 = test system: HL-60
SNB-75 = test system: SNB-75
DU-145 = test system: DU-145
MOLT-4 = test system: MOLT-4
K562 = test system: K562
MDA-N = test system: MDA-N
SR = test system: SR
HOP-62 = test system: HOP-62
BT-549 = test system: BT-549
MCF7 = test system: MCF7
MDA-MB-435 = test system: MDA-MB-435
COLO 205 = test system: COLO 205
MDA-MB-231 = test system: MDA-MB-231
Malme-3M = test system: Malme-3M
OVCAR-3 = test system: OVCAR-3
SK-MEL-5 = test system: SK-MEL-5
T47D = test system: T47D
OVCAR-4 = test system: OVCAR-4
SNB-78 = test system: SNB-78
LXFL 529 = test system: LXFL 529

C/C(=N\NC(=O)c1cccnc1)c1cccc(/C(C)=N/NC(=O)c2cccnc2)n1
GI50 (OVCAR-5): 2.08 µM (inactive) | GI50 (M14): 2.85 µM (inactive) | GI50 (SW-620): 2.78 µM (inactive) | GI50 (A549): 2.99 µM (inactive) | GI50 (U-251): 2.06 µM (inactive) | GI50 (EKVX): 3.42 µM (inactive) | GI50 (HCT-15): 3.99 µM | GI50 (KM-20L2): 2.21 µM (inactive) | GI50 (UACC-257): 3.06 µM (inactive) | GI50 (TK-10): 4.67 µM (inactive) | GI50 (M19-MEL): 13.2 µM (inactive) | GI50 (LOX IMVI): 2 µM (inactive) | GI50 (DLD-1): 1.95 µM (inactive) | GI50 (UO-31): 3.81 µM (inactive) | GI50 (SF-539): 2.36 µM (inactive) | GI50 (NCI-H23): 7.4 µM (inactive) | GI50 (NCI-H460): 3.41 µM (inactive) | GI50 (SNB-19): 3.56 µM (inactive) | GI50 (SF-295): 4.15 µM (inactive) | GI50 (SN12C): 4.81 µM (inactive) | GI50 (SK-OV-3): 4.14 µM (inactive) | GI50 (ACHN): 1.48 µM (inactive) | GI50 (SF-268): 0.867 µM (active) | GI50 (OVCAR-8): 2.43 µM (inactive) | GI50 (KM12): 4.85 µM (inactive) | GI50 (UACC-62): 2.04 µM (inactive)

C[C@H]1CCC/C=C/[C@@H]2C[C@H](OC3OC(CO)C(O)C(O)C3O)C[C@H]2[C@H](O)/C=C/C(=O)O1 (some centres undefined)
GI50 (OVCAR-5): 37.3 µM (inactive) | GI50 (NCI-H226): 22.5 µM (inactive) | GI50 (M14): 46.9 µM (inactive) | GI50 (SW-620): 35.9 µM (inactive) | GI50 (HOP-92): > 100 µM (inactive) | GI50 (HCC 2998): 29.7 µM (inactive) | GI50 (A498): 25.5 µM (inactive) | GI50 (RXF 393): 19 µM (inactive) | GI50 (CAKI-1): > 100 µM (inactive) | GI50 (A549): 88.7 µM (inactive) | GI50 (U-251): 94 µM (inactive) | GI50 (EKVX): > 100 µM (inactive) | GI50 (HCT-15): 72.3 µM | GI50 (NCI/ADR-RES): 33.3 µM (inactive) | GI50 (NCI-H522): 44 µM (inactive) | GI50 (HT-29): 33.2 µM (inactive) | GI50 (UACC-257): 26.5 µM (inactive) | GI50 (TK-10): 91.2 µM (inactive) | GI50 (SK-MEL-28): 25.1 µM (inactive) | GI50 (CCRF-CEM): > 100 µM (inactive) | GI50 (RPMI-8226): 53.8 µM (inactive) | GI50 (PC-3): 64.6 µM (inactive) | GI50 (LOX IMVI): 36.1 µM (inactive) | GI50 (Hs-578T): 30.1 µM (inactive) | GI50 (786-0): 36.7 µM (inactive) | GI50 (UO-31): 24.4 µM (inactive) | GI50 (IGROV-1): > 100 µM (inactive) | GI50 (SF-539): 32.1 µM (inactive) | GI50 (SK-MEL-2): 49.5 µM (inactive) | GI50 (NCI-H23): 53.1 µM (inactive) | GI50 (NCI-H460): 78.9 µM (inactive) | GI50 (HCT-116): 77.8 µM (inactive) | GI50 (HL-60): > 100 µM (inactive) | GI50 (SNB-75): 35 µM (inactive) | GI50 (DU-145): > 100 µM (inactive) | GI50 (MOLT-4): > 100 µM (inactive) | GI50 (K562): > 100 µM (inactive) | GI50 (SNB-19): > 100 µM (inactive) | GI50 (SF-295): 77.6 µM (inactive) | GI50 (SN12C): > 100 µM (inactive) | GI50 (MDA-N): 36.3 µM (inactive) | GI50 (SR): > 100 µM (inactive) | GI50 (SK-OV-3): 40 µM (inactive) | GI50 (HOP-62): > 100 µM (inactive) | GI50 (BT-549): > 100 µM (inactive) | GI50 (MCF7): 62.4 µM (inactive) | GI50 (MDA-MB-435): 50.6 µM (inactive) | GI50 (ACHN): > 100 µM (inactive) | GI50 (SF-268): 72.8 µM (inactive) | GI50 (COLO 205): 17.2 µM (inactive) | GI50 (OVCAR-8): 39.5 µM (inactive) | GI50 (KM12): 31.3 µM (inactive) | GI50 (MDA-MB-231): 20.4 µM (inactive) | GI50 (Malme-3M): 17.8 µM (inactive) | GI50 (OVCAR-3): 55.6 µM (inactive) | GI50 (SK-MEL-5): 17.2 µM (inactive) | GI50 (UACC-62): 35.6 µM (inactive) | GI50 (T47D): > 100 µM (inactive) | GI50 (OVCAR-4): 78.5 µM (inactive)

CCOC(=O)N1CCC(N[C@@H]2c3cc4c(cc3[C@@H](c3cc(OC)c(O)c(OC)c3)[C@H]3C(=O)OC[C@@H]32)OCO4)CC1
GI50 (M14): 1.5 µM (inactive) | GI50 (SW-620): 2.19 µM (inactive) | GI50 (HOP-92): 0.895 µM (active) | GI50 (A498): 0.262 µM (active) | GI50 (CAKI-1): 0.647 µM (active) | GI50 (U-251): 1 µM (active) | GI50 (EKVX): 1.97 µM (inactive) | GI50 (HCT-15): 0.771 µM | GI50 (SNB-78): 16 µM (inactive) | GI50 (HT-29): 2.63 µM (inactive) | GI50 (UACC-257): 6.55 µM (inactive) | GI50 (M19-MEL): 2.07 µM (inactive) | GI50 (SK-MEL-28): 9.29 µM (inactive) | GI50 (CCRF-CEM): 0.465 µM (active) | GI50 (LXFL 529): 6.78 µM (inactive) | GI50 (LOX IMVI): 1.01 µM (active) | GI50 (DLD-1): 6.68 µM (inactive) | GI50 (786-0): 0.764 µM (active) | GI50 (UO-31): 1.08 µM (active) | GI50 (IGROV-1): 2.95 µM (inactive) | GI50 (SK-MEL-2): 6.03 µM (inactive) | GI50 (NCI-H23): 0.501 µM (active) | GI50 (NCI-H460): 0.0352 µM (active) | GI50 (HCT-116): 2.7 µM (inactive) | GI50 (SNB-75): 2.18 µM (inactive) | GI50 (K562): 2 µM (inactive) | GI50 (SNB-19): 1.05 µM (active) | GI50 (SF-295): 0.597 µM (active) | GI50 (SK-OV-3): 0.966 µM (active) | GI50 (HOP-62): 0.853 µM (active) | GI50 (ACHN): 0.289 µM (active) | GI50 (SF-268): 2.73 µM (inactive) | GI50 (COLO 205): 6 µM (inactive) | GI50 (OVCAR-8): 2.18 µM (inactive) | GI50 (KM12): 2.07 µM (inactive) | GI50 (Malme-3M): 1.79 µM (inactive) | GI50 (OVCAR-3): 6.12 µM (inactive) | GI50 (SK-MEL-5): 1.12 µM (active) | GI50 (UACC-62): 0.771 µM (active)
